Patent US20240300941A1, “HPK1 INHIBITORS, PREPARATION METHOD AND APPLICATION THEREOF” (ZHUHAI YUFAN BIOTECHNOLOGIES CO., LTD., priority 2018, published 2024)

How the values were obtained:
HPK1 = HPK1 (Homo sapiens (Human), UniProt Q92918); experiment: HPK1 ADP-Glo enzyme assay; type: biochemical; conditions: HPK1 protein 5 nM, MBP and ATP substrate, ADP-Glo readout
Experimental: The buffer used in the enzyme assay contains 5 mM MOPS (pH=7.2), 2.5 mM β-Glycerol Phosphate, 0.4 mM EDTA, 1 mM EGTA, 0.05 mM DTT, 5 mM MgCl2. The compound was dissolved in 100% DMSO at the concentration was 10 mM. The initial concentration of the test was 5 uM, and ten data points were diluted by three-fold gradient, and each point was repeatedly measured twice. The HPK1 protein was purchased from Thermo (Cat. No. PV6355) and diluted to 2× stock solution at the concentration of 10 nM (the final concentration of the enzyme assay was 5 nM). 2.5 µl of 2×HPK1 protein was added to each well of the plate containing the test compound, centrifuged at 1000 rpm for 30 seconds, and then incubated at 25° C. for 15 minutes. MBP protein was purchased from Millipore (Cat. No. 13-110) and ATP was purchased from Sigma (Cat. No. A7699-5G) and the two were formulated into 2× working solutions at concentrations of 4 uM and 80 uM. Added 2.5 μl mixture of 2×MBP and ATP, centrifuged at 1000 rpm for 30 seconds, then incubated at 25° C. for 90 minutes. Then added 5 ul of ADP-Glo™ (Promega, Cat. No. V9102) to the assay plate and incubated […] at 25° C. for 60 minutes. Finally, 10 ul of the kinase assay reagent (Promega, Cat. No. V9102) was added to the assay plate, centrifuged at 1000 rpm for 30 seconds at 25° C. for 60 minutes, and the […] intensity was determined.

[1] = tested on: pSLP-76(Ser376) in Jurkat E6-1 cells; experiment: Jurkat E6-1 pSLP-76(Ser376) HTRF experiment; type: cell-based; conditions: 4 hours compound incubation, anti-human CD3 antibody 20 minutes, Phospho-SLP-76 / SLP-76 HTRF
Experimental: Jurkat E6-1 cells were purchased from ATCC (Cat. No. TIB-152TM) and cultured overnight with RPMI 1640 containing 0.5% o FBS, after that 20 μL (10^7 cells/mL) cells were added to the experimental plates. Then the test compounds were diluted by three-fold gradient, and 10 different concentrations were prepared, and 5 μl of each was added to the experimental plate, and incubated for 4 hours in 37° C. incubator containing 5% CO2. Then 5 ul of 6× anti-human CD3 antibody (Biolegend, Cat. No. 300432) was added and incubated for 20 minutes in 37° C. incubator containing 5% CO2. Finally, the Phospho-SLP-76 and SLP-76 results were determined using the Cisbio Phospho-SLP-76 and SLP-76 HTRF assay kits (items: 63ADK076PEH and 63ADK077PEH, respectively). Based on the results, the IC50 of the compound is calculated.

Chain of HPK1 (Q92918 whole entry): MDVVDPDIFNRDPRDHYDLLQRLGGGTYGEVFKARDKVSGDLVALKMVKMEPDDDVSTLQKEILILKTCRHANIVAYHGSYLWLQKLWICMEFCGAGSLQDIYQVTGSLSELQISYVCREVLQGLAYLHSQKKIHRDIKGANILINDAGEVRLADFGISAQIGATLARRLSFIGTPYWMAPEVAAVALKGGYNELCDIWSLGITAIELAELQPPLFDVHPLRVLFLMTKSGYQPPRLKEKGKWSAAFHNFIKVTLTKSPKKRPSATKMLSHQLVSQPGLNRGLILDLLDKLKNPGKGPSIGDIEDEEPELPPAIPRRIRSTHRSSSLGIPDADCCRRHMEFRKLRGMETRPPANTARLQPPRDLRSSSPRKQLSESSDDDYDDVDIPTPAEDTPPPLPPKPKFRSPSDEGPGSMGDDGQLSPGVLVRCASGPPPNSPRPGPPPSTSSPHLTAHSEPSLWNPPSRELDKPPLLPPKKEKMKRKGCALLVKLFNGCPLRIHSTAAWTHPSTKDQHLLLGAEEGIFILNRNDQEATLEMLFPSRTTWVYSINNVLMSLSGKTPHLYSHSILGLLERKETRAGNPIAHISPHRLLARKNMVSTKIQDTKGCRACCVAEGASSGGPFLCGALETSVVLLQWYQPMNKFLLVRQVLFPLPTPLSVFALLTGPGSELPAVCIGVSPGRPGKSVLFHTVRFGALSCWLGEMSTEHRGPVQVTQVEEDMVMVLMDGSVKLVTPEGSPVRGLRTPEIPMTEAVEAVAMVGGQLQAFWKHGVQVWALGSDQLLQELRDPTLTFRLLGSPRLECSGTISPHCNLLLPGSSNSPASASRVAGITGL

With COc1ccc(C#CC(C)(C)O)cc1COc1cc(-c2cnc(C3CCN(C)CC3)s2)cnc1N [A59] the IC50 (HPK1) was less than 100 nM and the IC50 [1] was less than 1000 nM.

Cc1ccc(C#CC(C)(C)O)cc1COc1cc(-c2cnc(C3CCN(C)CC3)s2)cnc1N [A60] was tested, and the IC50 (HPK1) was less than 100 nM and the IC50 [1] was less than 1000 nM.

Work on CC1CN(C)CCN1c1ncc(-c2cnc(N)c(OCc3cccc(C#CC(C)(C)O)c3)c2)s1 (stereo not shown) [A63] yielded an IC50 (HPK1) of less than 100 nM and an IC50 [1] of less than 1000 nM.

C=CC(C)(O)C#Cc1cccc(COc2cc(-c3cnc(C4CCN(C)CC4)s3)cnc2N)c1 (stereo not shown) [A64] gave an IC50 (HPK1) of less than 100 nM and an IC50 [1] of less than 1000 nM.

Cc1cc(C#CC(C)(C)O)cc(COc2cc(-c3cnc(C4CCN(C)CC4)s3)cnc2N)c1 [A71] gave an IC50 (HPK1) of less than 100 nM and an IC50 [1] of less than 1000 nM.
